Patent US8415346B2, “Inhibitors of Janus kinases” (Merck Sharp & Dohme Corp., priority 2008, dated 2013)

Biological target: T1, recombinant JAK2 (JAK2 JH1 domain) (Homo sapiens, UniProt O60674)
T1 construct: 50 nM JAK2 JH1 domain (Upstate); purchased Upstate
Experiment: JAK2 Kinase Activity Inhibition Assay and Determination of IC50 (HTRF)
Format: biochemical
Details: HTRF kinase assay, 15 μM MgATP, 50 nM JAK2 JH1 domain
Method: JAK2 Kinase Activity Inhibition Assay and Determination of IC50
The kinase activity was measured using a modified version of the homogeneous time-resolved tyrosine kinase assay described in Park et al. Anal. Biochem. 269, 94-104 (1999).
IC50 was obtained by fitting the observed relationship between compound/inhibitor concentration and HTRF signal with a 4-parameter logistic equation.
Compounds of the instant invention are potent inhibitors of recombinant purified JAK2 kinase activity with an IC50 of approximately 8 nM-1 μM.

T1 sequence (O60674 849-1124 limits assumed): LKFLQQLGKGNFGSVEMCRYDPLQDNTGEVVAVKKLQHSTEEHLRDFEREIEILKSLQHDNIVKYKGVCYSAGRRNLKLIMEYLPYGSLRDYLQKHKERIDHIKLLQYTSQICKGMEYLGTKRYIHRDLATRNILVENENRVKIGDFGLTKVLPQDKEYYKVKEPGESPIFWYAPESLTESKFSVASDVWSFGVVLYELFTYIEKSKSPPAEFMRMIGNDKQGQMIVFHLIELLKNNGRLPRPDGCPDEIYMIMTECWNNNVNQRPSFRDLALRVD

Going from `CS(=O)(=O)c1ccc(Nc2nn(-c3ccccc3)cc2C(N)=O)cc1` [Example 1, 3-{[4-(methylsulfonyl)phenyl]amino}-1-phenyl-1H-pyrazole-4-carboxamide] to `CN(C)S(=O)(=O)c1ccc(Nc2nn(-c3ccccc3)cc2C(N)=O)cc1` [Example 6, 3-({4-[(dimethylamino)sulfonyl]phenyl}amino)-1-phenyl-1H-pyrazole-4-carboxamide], the IC50 falls from 170 nM to 42 nM (4-fold).

Compared with `CNC(=O)c1ccc(Nc2nn(-c3ccccc3)cc2C(N)=O)cc1` [Example 2, 3-({4-[(methylamino)carbonyl]phenyl}amino)-1-phenyl-1H-pyrazole-4-carboxamide], `CN(C)C(=O)c1ccc(Nc2nn(-c3ccccc3)cc2C(N)=O)cc1` [Example 7, 3-({4-[(dimethylamino)carbonyl]phenyl}amino)-1-phenyl-1H-pyrazole-4-carboxamide] is 2.9-fold lower in IC50: 160 nM for the first, 56 nM for the second. The second is the more potent here.

Going from `NC(=O)c1cn(-c2ccccc2)nc1Nc1ccnc(CO)c1` [Example 3, 3-{[2-(hydroxymethyl)pyridin-4-yl]amino}-1-phenyl-1H-pyrazole-4-carboxamide] to `NC(=O)c1cn(-c2ccccc2)nc1Nc1ccccc1` [Example 8, 3-anilino-1-phenyl-1H-pyrazole-4-carboxamide], the IC50 falls from 860 nM to 480 nM (1.8-fold). The second is the more potent here.

Compared with `NC(=O)c1cn(-c2ccccc2)nc1Nc1ccc(C(=O)N2CCOCC2)cc1` [Example 4, 3-{[4-(morpholin-4-ylcarbonyl)phenyl]amino}-1-phenyl-1H-pyrazole-4-carboxamide], `CN1CCN(C(=O)c2ccc(Nc3nn(-c4ccccc4)cc3C(N)=O)cc2)CC1` [Example 9, 3-({4-[(4-methylpiperazin-1-yl)carbonyl]phenyl}amino)-1-phenyl-1H-pyrazole-4-carboxamide] is 2.5-fold lower in IC50: 94 nM for the first, 38 nM for the second. The second is the more potent here.

`NC(=O)c1cn(-c2ccccc2)nc1Nc1ccc(S(=O)(=O)N2CCOCC2)cc1` [Example 5, 3-{[4-(morpholin-4-ylsulfonyl)phenyl]amino}-1-phenyl-1H-pyrazole-4-carboxamide] and `NC(=O)c1cn(-c2ccccc2)nc1Nc1ccc(CN2CCOCC2)cc1` [Example 11, 3-{[4-(morpholin-4-ylmethyl)phenyl]amino}-1-phenyl-1H-pyrazole-4-carboxamide] are within 1.5-fold of each other in IC50: 63 nM for the first, 49 nM for the second.

First: NC(=O)c1cn(-c2ccccc2)nc1Nc1ccc(C(=O)N2CCS(=O)(=O)CC2)cc1 [Example 10, 3-({4-[(1,1-dioxidothiomorpholin-4-yl)carbonyl]phenyl}amino)-1-phenyl-1H-pyrazole-4-carboxamide]
Second: NC(=O)c1cn(-c2ccccc2)nc1Nc1ccc(CN2CCS(=O)(=O)CC2)cc1 [Example 12, 3-({4-[(1,1-dioxidothiomorpholin-4-yl)methyl]phenyl}amino)-1-phenyl-1H-pyrazole-4-carboxamide]
The IC50 of the first is 2.8-fold lower: 13 nM for the first, 36 nM for the second.

Going from `CN(C)Cc1ccc(Nc2nn(-c3ccccc3)cc2C(N)=O)cc1` [Example 13, 3-({4-[(dimethylamino)methyl]phenyl}amino)-1-phenyl-1H-pyrazole-4-carboxamide] to `CC(C)(O)c1ccc(Nc2nn(-c3ccccc3)cc2C(N)=O)cc1` [Example 14, 3-{[4-(1-hydroxy-1-methylethyl)phenyl]amino}-1-phenyl-1H-pyrazole-4-carboxamide], the IC50 rises from 36 nM to 81 nM (2.2-fold). The first is the more potent here.

First: CS(=O)(=O)c1ccc(Nc2nn(-c3ccc(Cl)cc3)cc2C(N)=O)cc1 [Example 15, 1-(4-chlorophenyl)-3-{[4-(methylsulfonyl)phenyl]amino}-1H-pyrazole-4-carboxamide]
Second: CC(O)c1ccc(-n2cc(C(N)=O)c(Nc3ccc(S(C)(=O)=O)cc3)n2)cc1 (stereo not drawn) [Example 18, 1-[4-(1-hydroxyethyl)phenyl]-3-{[4-(methylsulfonyl)phenyl]amino}-1H-pyrazole-4-carboxamide]
The IC50 of the first is 14-fold higher: 290 nM for the first, 20 nM for the second.

Going from `CS(=O)(=O)c1ccc(Nc2nn(-c3ccc(S(C)(=O)=O)cc3)cc2C(N)=O)cc1` [Example 16, 1-[4-(methylsulfonyl)phenyl]-3-{[4-(methylsulfonyl)phenyl]amino}-1H-pyrazole-4-carboxamide] to `CC(C)(C)c1ccc(-n2cc(C(N)=O)c(Nc3ccc(S(C)(=O)=O)cc3)n2)cc1` [Example 17, 1-(4-tert-butylphenyl)-3-{[4-(methylsulfonyl)phenyl]amino}-1H-pyrazole-4-carboxamide], the IC50 falls from 48 nM to 8.1 nM (5.9-fold). The second is the more potent here.
